# Laboratory results: PMC4311242 (2015)
# How the values were obtained:
# [1] = tested on: kanamycin-binding DNA aptamer (DNA, aptamer) TGGGGGTTGAGGCTAAGCCGA; experiment: TO fluorescent intercalator displacement; details: 10 mM NaCl, 10 mM Tris-HCl pH 7.2, 25 °C
# [2] = tested on: Mut2 (DNA, aptamer) TGGAAATTGAGGCTAAGCCGA; experiment: TO fluorescent intercalator displacement; details: 10 mM NaCl; 10 mM Tris-HCl pH 7.2, 25 °C; TO displaced; affinity comparable to parent aptamer
# [3] = tested on: kanamycin-binding DNA aptamer (DNA, aptamer) TGGGGGTTGAGGCTAAGCCGA; experiment: fluorescence enhancement; details: 10 mM NaCl; 10 mM Tris-HCl pH 7.2, 25 °C; excitation 501 nm, emission 530 nm
# [4] = tested on: Mut1 (DNA, aptamer) TGGGGGTTGAAACTAAGCCGA; experiment: fluorescence enhancement; details: 10 mM NaCl; 10 mM Tris-HCl pH 7.2, 25 °C; excitation 501 nm, emission 530 nm
# [5] = TO tracer 3.5:1 to DNA, tested at 20 µM
compound,measurement,setting,value
CC1(C)S[C@@H]2[C@H](NC(=O)[C@H](N)c3ccccc3)C(=O)N2[C@H]1C(=O)O,binding,[1]; [5],no
CN(C)[C@@H]1C(O)=C(C(N)=O)C(=O)[C@@]2(O)C(O)=C3C(=O)c4c(O)ccc(Cl)c4[C@@](C)(O)[C@H]3C[C@@H]12,binding,[1]; [5],no
O=C(N[C@H](CO)[C@H](O)c1ccc([N+](=O)[O-])cc1)C(Cl)Cl,binding,[1]; [5],no
NC[C@H]1O[C@H](O[C@H]2[C@H](O)[C@@H](O[C@H]3O[C@H](CO)[C@@H](O)[C@H](N)[C@H]3O)[C@H](N)C[C@@H]2N)[C@H](O)[C@@H](O)[C@@H]1O,binding,"[1]; TO displaced, kanamycin 0.1-100 µM",yes
same,binding,[2],yes
COc1cc(NS(=O)(=O)c2ccc(N)cc2)nc(OC)n1,binding,[1]; [5],no
CN[C@@H]1[C@H](O[C@H]2[C@H](O[C@H]3[C@H](O)[C@@H](O)[C@H](N=C(N)N)[C@@H](O)[C@@H]3N=C(N)N)O[C@@H](C)[C@]2(O)C=O)O[C@@H](CO)[C@H](O)[C@H]1O,binding,[1]; [5],no
CN(C)[C@@H]1C(=O)C(C(N)=O)=C(O)[C@@]2(O)C(=O)C3=C(O)c4c(O)cccc4[C@@](C)(O)[C@H]3[C@H](O)[C@@H]12,binding,[1]; [5],no
CN1C(=Cc2cc[n+](C)c3ccccc23)Sc2ccccc21,binding,[3],yes
same,binding,[4],weak
